Laboratory results from ChEMBL document CHEMBL1201862, “PubChem BioAssay data set” (2004).
The source made the active and inactive calls.

Columns and labels:
[1] = molecular target: Ras and Rab interactor 1/Tyrosine-protein kinase ABL1 (Homo sapiens, UniProt P00519+Q13671); test: biochemical; type: functional;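 also: biochemical TR-FRET dose-response test measuring inhibition of binding between Rin1 and Abl proteins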
[2] = molecular target: T1, Tyrosyl-DNA phosphodiesterase 2 (Homo sapiens, UniProt O95551); test: potency against TDP2 phosphodiesterase activity – biochemical, epi absorbance, IC50, dose response (AID 743297)
T1 sequence (O95551 whole entry): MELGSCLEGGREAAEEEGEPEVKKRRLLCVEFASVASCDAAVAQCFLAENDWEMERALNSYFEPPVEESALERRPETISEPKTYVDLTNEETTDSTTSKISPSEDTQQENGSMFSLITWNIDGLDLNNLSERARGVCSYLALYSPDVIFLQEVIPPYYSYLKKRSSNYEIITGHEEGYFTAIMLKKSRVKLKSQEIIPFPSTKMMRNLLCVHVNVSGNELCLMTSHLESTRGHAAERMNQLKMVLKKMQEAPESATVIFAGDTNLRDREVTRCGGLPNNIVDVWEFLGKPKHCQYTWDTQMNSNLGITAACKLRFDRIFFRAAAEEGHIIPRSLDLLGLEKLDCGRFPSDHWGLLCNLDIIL

[3] = molecular target: Transitional endoplasmic reticulum ATPase (Homo sapiens, UniProt P55072, C522A); test: C522A mutant p97 ATPase inhibitors, dose response, counter-screen for p97 inhibitor project, biochemical, luminescence (AID 1544)
[4] = molecular target: Transitional endoplasmic reticulum ATPase (Homo sapiens, UniProt P55072); test: p97 ATPase inhibitors, dose response, biochemical (AID 1534)
[5] = molecular target: T2, Caspase-6 (Homo sapiens, UniProt P55212); test: inhibition of CASP6 peptide cleavage – biochemical, VEID-R110 fluorescence, cherry-pick, dose response (AID 720632)
T2 sequence (P55212 whole entry): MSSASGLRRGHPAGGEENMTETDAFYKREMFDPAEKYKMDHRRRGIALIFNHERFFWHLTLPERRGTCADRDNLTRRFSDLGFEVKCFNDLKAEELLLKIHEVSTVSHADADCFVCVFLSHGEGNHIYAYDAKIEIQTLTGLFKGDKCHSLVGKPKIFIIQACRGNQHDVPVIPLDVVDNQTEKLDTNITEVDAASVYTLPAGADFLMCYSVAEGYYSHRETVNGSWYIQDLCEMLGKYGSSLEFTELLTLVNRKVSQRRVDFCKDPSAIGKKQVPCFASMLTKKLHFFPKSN

[6] = THP-1 cell cytotoxicity, dose response, cytotoxicity control for non-replicating M. tuberculosis project (AID 489025); type: functional
[7] = molecular target: T3, Interleukin-8 (Homo sapiens, UniProt P10145); test: SAR analysis of Tumor necrosis factor alpha (TNF-alpha) induced IL-8 secretion in MCF-7/NOD1 cells - Set 2. [Related pubchem assays (depositor defined):AID1575, AID2250, AID2260]; type: functional, cell-based
T3 sequence (P10145 whole entry): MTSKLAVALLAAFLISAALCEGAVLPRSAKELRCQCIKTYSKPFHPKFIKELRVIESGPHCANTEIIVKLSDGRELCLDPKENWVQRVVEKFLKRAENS

[8] = Vero E6 cell cytotoxicity, dose response, cytotoxicity control for non-replicating M. tuberculosis project, secondary assay (AID 492998); type: functional, VeroE6; details: Vero C1008
[9] = non-specific 3'UTR reporter inhibition in Clone20-Shn3RL – cell-based, Renilla luciferase, cherry-picked, counter-screen for Shn3 inhibitor project, dose response (AID 624133); type: functional
[10] = reduction of Shn3 3'UTR-driven luciferase in osteoblasts – cell-based, Clone20 osteoblasts, firefly luciferase, cherry-picked, dose response (AID 624132); type: functional;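 also: firefly luciferase luminescence from reporter carrying the Shn3 3'UTR in osteoblasts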
[11] = cells; type: functional
[12] = loss of viability in HepG2 cells – cell-based, CellTiter-Glo, cherry-picked, cytotoxicity control for Shn3 inhibitor project, dose response (AID 624134); type: functional
[13] = tested on: CHO; test: CHO cell viability loss, potency – luminescence, cytotoxicity control for TLR9-MyD88 binding inhibitor project, dose response (AID 588339); type: functional, cell-based, hamster; details: Cricetulus griseus;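 also: CHO cells stably coexpressing TLR9 and MyD88 fusions from primary screen; compound exposure lasted 48 hours before viability readout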
[14] = molecular target: Paired box protein Pax-8 (Homo sapiens, UniProt Q06710); test: PAX8 transcriptional activity inhibition in RMG-I – RMG-I cells, luciferase, cherry-pick, dose response (AID 687027); type: functional, cell-based;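 also: luciferase reporter driven by Pax8 target thyroperoxidase promoter measured by SteadyGlo luminescence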
[15] = tested on: HEK293; test: SAR analysis of compounds that are cytotoxic to HEK293 - Set 2. [Related pubchem assays (depositor defined):AID1575, AID1578, AID1849, AID2001, AID2333, AID2334, AID2335, AID2337, AID2800]; type: functional, cell-based; details: Homo sapiens
[16] = viability loss in HEK293T cells – cell-based, cherry-picks, cytotoxicity control for HIV Vif inhibitor project, dose response (AID 652208); type: functional
[17] = molecular target: Beta Lactamase (Pseudomonas aeruginosa, UniProt Q932Y6); test: BLA reporter interference, concentration series – BLA reporter cells, FRET fluorescence, artefact control for TLR9-MyD88 binding inhibitor project, dose response (AID 588341); type: cell-based;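 also: cell based assay in CHO-K1 cells stably expressing beta-lactamase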
[18] = molecular target: Glucose-6-phosphate 1-dehydrogenase (Homo sapiens, UniProt P11413); test: inhibition of Homo sapiens G6PD, dose series – biochemical, fluorescence, selectivity assay for P. falciparum G6PD inhibitor project, dose response (AID 504792); type: functional
Glucose-6-phosphate 1-dehydrogenase, sequence (P11413 whole entry): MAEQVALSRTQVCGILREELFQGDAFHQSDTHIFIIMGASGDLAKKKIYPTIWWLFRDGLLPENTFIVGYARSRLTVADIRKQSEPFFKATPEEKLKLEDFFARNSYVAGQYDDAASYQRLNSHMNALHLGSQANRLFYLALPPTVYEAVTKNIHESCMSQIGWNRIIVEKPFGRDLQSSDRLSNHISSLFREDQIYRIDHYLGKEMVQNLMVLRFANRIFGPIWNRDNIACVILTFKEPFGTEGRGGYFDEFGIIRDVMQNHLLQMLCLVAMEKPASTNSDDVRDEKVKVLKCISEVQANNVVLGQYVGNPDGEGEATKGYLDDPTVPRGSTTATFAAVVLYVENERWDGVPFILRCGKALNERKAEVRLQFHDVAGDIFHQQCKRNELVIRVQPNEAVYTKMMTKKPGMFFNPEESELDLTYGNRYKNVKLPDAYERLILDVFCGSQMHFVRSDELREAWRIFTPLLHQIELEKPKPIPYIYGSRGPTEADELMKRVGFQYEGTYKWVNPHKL

Transitional endoplasmic reticulum ATPase (Homo sapiens, UniProt P55072), sequence (P55072 whole entry): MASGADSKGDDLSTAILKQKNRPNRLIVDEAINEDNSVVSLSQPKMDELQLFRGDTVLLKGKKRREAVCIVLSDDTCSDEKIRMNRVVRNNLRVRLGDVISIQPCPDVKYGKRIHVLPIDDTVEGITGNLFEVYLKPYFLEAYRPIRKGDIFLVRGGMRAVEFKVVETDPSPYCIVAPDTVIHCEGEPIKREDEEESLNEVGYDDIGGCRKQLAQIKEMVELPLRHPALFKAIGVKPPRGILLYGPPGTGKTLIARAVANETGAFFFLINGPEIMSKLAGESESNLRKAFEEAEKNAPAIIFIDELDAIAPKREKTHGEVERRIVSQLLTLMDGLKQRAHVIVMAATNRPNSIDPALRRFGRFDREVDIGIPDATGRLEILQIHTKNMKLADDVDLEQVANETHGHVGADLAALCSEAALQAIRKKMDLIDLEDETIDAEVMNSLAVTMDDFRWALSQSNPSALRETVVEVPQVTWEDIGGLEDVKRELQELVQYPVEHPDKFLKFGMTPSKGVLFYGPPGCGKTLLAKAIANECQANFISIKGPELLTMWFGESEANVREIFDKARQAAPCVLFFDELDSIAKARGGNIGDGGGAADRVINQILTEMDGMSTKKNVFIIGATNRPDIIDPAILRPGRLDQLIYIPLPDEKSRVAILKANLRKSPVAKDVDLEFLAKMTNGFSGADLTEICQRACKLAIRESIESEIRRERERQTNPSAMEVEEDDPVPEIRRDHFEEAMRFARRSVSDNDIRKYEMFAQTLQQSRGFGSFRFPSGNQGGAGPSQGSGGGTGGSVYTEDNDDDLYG
Paired box protein Pax-8, sequence (Q06710 whole entry): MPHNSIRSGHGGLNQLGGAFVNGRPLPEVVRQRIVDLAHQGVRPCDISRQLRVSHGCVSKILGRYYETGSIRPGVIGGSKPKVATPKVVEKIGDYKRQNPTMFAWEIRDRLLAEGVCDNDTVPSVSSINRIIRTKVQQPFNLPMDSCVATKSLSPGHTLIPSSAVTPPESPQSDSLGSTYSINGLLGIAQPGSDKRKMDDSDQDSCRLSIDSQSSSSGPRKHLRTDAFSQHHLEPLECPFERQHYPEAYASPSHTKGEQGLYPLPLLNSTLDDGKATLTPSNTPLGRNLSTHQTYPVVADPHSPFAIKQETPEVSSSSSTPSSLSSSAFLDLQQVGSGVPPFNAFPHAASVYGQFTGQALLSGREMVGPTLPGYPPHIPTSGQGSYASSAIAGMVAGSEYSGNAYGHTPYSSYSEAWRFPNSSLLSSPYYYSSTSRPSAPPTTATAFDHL
Ras and Rab interactor 1/Tyrosine-protein kinase ABL1, sequence (P00519 whole entry): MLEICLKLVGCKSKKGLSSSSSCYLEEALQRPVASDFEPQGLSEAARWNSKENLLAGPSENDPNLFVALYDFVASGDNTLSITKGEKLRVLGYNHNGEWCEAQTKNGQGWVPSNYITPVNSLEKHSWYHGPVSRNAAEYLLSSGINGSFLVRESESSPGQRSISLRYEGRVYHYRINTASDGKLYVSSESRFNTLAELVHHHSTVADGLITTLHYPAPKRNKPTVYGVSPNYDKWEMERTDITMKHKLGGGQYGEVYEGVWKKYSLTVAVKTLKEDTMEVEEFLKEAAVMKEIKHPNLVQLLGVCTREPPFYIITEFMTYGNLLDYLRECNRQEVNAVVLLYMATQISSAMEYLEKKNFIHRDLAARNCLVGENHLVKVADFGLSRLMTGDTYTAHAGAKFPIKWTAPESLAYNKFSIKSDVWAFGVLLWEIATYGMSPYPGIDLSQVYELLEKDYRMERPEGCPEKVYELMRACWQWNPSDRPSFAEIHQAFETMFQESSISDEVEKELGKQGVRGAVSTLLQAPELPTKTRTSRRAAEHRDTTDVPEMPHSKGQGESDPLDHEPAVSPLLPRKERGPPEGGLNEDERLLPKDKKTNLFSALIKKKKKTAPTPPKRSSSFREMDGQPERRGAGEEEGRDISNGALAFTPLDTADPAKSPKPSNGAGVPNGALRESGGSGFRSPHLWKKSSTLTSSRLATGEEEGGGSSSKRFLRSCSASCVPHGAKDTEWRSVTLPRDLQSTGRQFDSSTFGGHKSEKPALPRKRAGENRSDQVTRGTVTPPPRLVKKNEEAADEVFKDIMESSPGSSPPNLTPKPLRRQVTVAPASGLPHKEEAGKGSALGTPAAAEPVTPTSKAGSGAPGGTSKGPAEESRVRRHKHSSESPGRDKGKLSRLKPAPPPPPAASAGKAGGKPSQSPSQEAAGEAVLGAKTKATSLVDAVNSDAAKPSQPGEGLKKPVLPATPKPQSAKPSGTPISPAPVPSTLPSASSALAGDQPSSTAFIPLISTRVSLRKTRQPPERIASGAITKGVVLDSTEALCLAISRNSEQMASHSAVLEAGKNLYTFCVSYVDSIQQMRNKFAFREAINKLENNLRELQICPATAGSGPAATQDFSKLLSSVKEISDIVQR
Ras and Rab interactor 1/Tyrosine-protein kinase ABL1, sequence (Q13671 whole entry): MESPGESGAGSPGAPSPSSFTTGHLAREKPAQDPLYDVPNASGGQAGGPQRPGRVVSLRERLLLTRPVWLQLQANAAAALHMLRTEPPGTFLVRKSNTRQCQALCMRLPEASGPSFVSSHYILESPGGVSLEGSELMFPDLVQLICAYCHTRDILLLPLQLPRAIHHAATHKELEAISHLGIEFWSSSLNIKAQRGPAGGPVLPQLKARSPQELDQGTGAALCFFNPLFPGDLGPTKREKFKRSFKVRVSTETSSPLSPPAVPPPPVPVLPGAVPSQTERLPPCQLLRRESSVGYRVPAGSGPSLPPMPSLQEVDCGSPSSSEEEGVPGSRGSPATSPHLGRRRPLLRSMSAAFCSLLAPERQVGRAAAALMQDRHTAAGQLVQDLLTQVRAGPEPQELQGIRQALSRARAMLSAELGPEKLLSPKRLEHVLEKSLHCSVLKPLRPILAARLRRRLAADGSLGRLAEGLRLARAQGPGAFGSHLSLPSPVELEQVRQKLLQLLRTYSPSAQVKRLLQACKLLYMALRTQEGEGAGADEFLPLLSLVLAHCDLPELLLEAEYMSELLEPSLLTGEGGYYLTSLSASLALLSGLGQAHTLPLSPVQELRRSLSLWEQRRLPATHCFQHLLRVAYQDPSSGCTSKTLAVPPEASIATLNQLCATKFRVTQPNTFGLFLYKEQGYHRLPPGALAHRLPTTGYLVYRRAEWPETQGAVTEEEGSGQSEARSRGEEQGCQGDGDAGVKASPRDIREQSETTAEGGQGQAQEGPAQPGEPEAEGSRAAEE
Transitional endoplasmic reticulum ATPase (Homo sapiens, UniProt P55072, C522A), sequence (P55072 2-806 C522A limits assumed): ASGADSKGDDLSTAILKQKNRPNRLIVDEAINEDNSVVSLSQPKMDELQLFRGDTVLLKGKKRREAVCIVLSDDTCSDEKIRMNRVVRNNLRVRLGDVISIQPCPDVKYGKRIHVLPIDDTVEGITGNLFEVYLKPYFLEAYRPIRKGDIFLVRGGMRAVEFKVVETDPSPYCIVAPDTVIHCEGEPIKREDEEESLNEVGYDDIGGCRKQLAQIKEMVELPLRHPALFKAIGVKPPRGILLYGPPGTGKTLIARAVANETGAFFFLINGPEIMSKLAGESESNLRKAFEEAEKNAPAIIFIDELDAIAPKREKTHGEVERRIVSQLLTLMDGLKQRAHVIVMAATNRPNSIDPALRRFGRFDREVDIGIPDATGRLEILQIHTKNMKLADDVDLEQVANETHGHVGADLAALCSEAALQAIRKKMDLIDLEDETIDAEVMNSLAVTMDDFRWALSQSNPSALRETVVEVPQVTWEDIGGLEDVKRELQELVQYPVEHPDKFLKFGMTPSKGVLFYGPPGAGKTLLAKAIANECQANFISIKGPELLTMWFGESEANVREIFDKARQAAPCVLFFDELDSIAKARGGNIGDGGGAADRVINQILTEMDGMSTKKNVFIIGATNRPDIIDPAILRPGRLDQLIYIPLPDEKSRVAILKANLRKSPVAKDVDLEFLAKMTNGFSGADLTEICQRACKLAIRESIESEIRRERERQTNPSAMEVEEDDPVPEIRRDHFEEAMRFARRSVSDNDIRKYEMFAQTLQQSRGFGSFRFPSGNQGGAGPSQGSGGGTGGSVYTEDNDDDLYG
Beta Lactamase, sequence (Q932Y6 whole entry): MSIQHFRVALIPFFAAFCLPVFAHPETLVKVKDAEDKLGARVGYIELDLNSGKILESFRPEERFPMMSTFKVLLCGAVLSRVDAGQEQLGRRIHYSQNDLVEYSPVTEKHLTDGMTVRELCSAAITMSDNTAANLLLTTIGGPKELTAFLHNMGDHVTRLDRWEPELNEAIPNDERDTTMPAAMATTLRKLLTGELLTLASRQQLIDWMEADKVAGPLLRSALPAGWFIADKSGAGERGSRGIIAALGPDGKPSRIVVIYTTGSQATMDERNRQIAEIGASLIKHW

O=C(NC1(O)C(=O)c2ccccc2C1=O)c1c(Cl)cccc1Cl
IC50 [1]: 21 µM (inactive)
IC50 [2]: 4.2 µM (active)
IC50 [3]: > 50 µM (not active)
IC50 [4]: > 50 µM (not active)

CCN(c1ccccc1)c1cc2ccccc2c(=O)[nH]1
AC50 [5]: 5.45 µM (active)

Cn1c(=O)[nH]c(=O)c2c1nc([N+](=O)[O-])n2Cc1ccccc1
CC50 [6]: 3.23 µM (active)
IC50 [7]: 3.5 µM (active)
CC50 [8]: 6.75 µM (active)
AC50 [9]: 5.91 µM (active)
AC50 [10]: 1.9 µM (active)
IC50 [11]: 4.75 µM (active)
AC50 [12]: 18.3 µM (active)
IC50 [13]: 2.23 µM (active)
AC50 [14]: 3.81 µM (active)
IC50 [15]: 13.7 µM (active)
AC50 [16]: 4.52 µM (active)
IC50 [17]: > 49.8 µM (inactive)
IC50 [18]: 47.9 µM (inactive)

O=C(NC1(O)C(=O)c2ccccc2C1=O)c1ccc(C(F)(F)F)cc1
IC50 [2]: 3.85 µM (active)
